According to USRE48335E1, “Polymyxin derivatives as antimicrobial compounds” (priority 2014, dated 2020):
In brackets after ≈: the same amount, converted by molar mass. Starred links: 1 amine or outer side, 2 acyl side, 3 side chain; linkers in the order of their positions; H or OH if unused. Positions of bridges follow the written chain, without caps; N, C: chain ends. Non-standard residues stand in square brackets, D forms with d. Residues, ends and D or L forms follow the SMILES beside them. ξ: configuration not given here. *: point of attachment. X2 = CC(C)C[C@@H](CC(=O)[C@H](CCN)N[*:1])C(=O)[*:2]; Heptanoyl(6-Me) = CC(C)CCCCC(=O)*; X8 = O=C(c1ccc(C(F)(F)F)cc1Cl)*; Thr(3ξ) = CC(O)[C@H](N)C(=O)O; dNle = CCCC[C@@H](N)C(=O)O; X1 = CC[C@H](C)CCCCC(=O)*; Octanoyl = CCCCCCCC(=O)*; Dab = NCC[C@H](N)C(=O)O; Abu = CC[C@H](N)C(=O)O; Dap = NC[C@H](N)C(=O)O

How the values were obtained:
Klebsiella pneumoniae = test system: Klebsiella pneumoniae
Summary of the method: (§1)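 Read-out is the MIC, obtained by broth microdilution under CLSI guidance. Lipopeptides (TFA salt form) were diluted in cation-adjusted Mueller-Hinton broth, with polymyxin B sulphate run alongside as control.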

Acinetobacter baumannii = test system: Acinetobacter baumannii
Summary of the method: as §1

Pseudomonas aeruginosa = test system: Pseudomonas aeruginosa
Summary of the method: as §1

Enterobacter cloacae = test system: Enterobacter cloacae
Summary of the method: as §1

P. aeruginosa ATCC 27853 = assay: In vivo efficacy in mouse blood infection model (neutropenic Swiss mice); conditions: compound, free base 4 mg/kg intravenously 2 h after inoculation, blood at 4 h
Summary of the method: (§2)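 Neutropenic Swiss mice (cyclophosphamide 150 mg/kg day −4, 100 mg/kg day −1, i.p.) infected i.v. with early log-phase bacteria; 4 mg/kg free base i.v. given 2 h post-inoculation. Blood CFU by cardiac puncture 4 h post-dose; Δlog10 CFU/mL treated versus saline controls.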

A. baumannii ATCC 19606 = assay: as above; conditions: compound, free base 4 mg/kg intravenously 2 h after inoculation, blood at 4 h
Summary of the method: as §2

[1] = test system: K. pneumoniae FADDI-KP032; assay: as above; conditions: compound, free base 4 mg/kg intravenously 2 h after inoculation, blood at 4 h
Summary of the method: as §2

Row | SMILES | MIC (Klebsiella pneumoniae) [µg/mL] | MIC (Acinetobacter baumannii) [µg/mL] | MIC (Pseudomonas aeruginosa) [µg/mL] | Δ log (Treated-Control at 4 h) (P. aeruginosa ATCC 27853) [log10 CFU/mL] | Δ log (Treated-Control at 4 h) (A. baumannii ATCC 19606) [log10 CFU/mL] | Δ log (Treated-Control at 4 h) [1] [log10 CFU/mL] | Minimum inhibitory concentration, Ab A ATCC 17978 (Acinetobacter baumannii) [µg/mL] | Minimum inhibitory concentration, Ab ATCC 19606 (Acinetobacter baumannii) [µg/mL] | Minimum inhibitory concentration, Ab FADDI-AB034 (Acinetobacter baumannii) [µg/mL] | Minimum inhibitory concentration, Pa ATCC 27853 (Pseudomonas aeruginosa) [µg/mL] | Minimum inhibitory concentration, Pa FADDI-PA022 (Pseudomonas aeruginosa) [µg/mL] | Minimum inhibitory concentration, Pa FADDI-PA025 (Pseudomonas aeruginosa) [µg/mL] | Minimum inhibitory concentration, Ec FADDI-EC001 (Enterobacter cloacae) [µg/mL] | Minimum inhibitory concentration, Ec FADDI-EC003 (Enterobacter cloacae) [µg/mL] | Minimum inhibitory concentration, Ec FADDI-EC006 (Enterobacter cloacae) [µg/mL] | also measured
1 | CC(C)CCCCC(=O)N[C@@H](CCN)C(=O)N[C@H](C(=O)N[C@H](CO)C(=O)N[C@H]1CCNC(=O)[C@H]([C@@H](C)O)NC(=O)[C@H](CCN)NC(=O)[C@H](CCN)NC(=O)[C@H]([C@@H](C)O)NC(=O)[C@@H](CC(C)C)NC(=O)[C@H](CCN)NC1=O)[C@@H](C)O [Compound 151, polymyxin D2] ({Heptanoyl(6-Me)}-[Dab]T[dS][Dab][Dab][dL]T[Dab][Dab]T; lactam 4-C) | 0.5 (≈ 0.442 µM) | 0.5 (≈ 0.442 µM) | 4 (≈ 3.54 µM) | −0.40 | −1.59 | −4.71 |  |  |  |  |  |  |  |  |  | Minimum inhibitory concentration (MIC), Ab ATCC 17978 (Acinetobacter baumannii): 0.25 µg/mL (≈ 0.221 µM); Minimum inhibitory concentration (MIC), Ab ATCC 19606 (Acinetobacter baumannii): 0.5 µg/mL (≈ 0.442 µM); Minimum inhibitory concentration (MIC), Ab FADDI-AB034 (Acinetobacter baumannii): 0.5 µg/mL (≈ 0.442 µM); Minimum inhibitory concentration (MIC), Pa ATCC 27853 (Pseudomonas aeruginosa): 4 µg/mL (≈ 3.54 µM); Minimum inhibitory concentration (MIC), Pa FADDI-PA022 (Pseudomonas aeruginosa): 4 µg/mL (≈ 3.54 µM); Minimum inhibitory concentration (MIC), Pa FADDI-PA025 (Pseudomonas aeruginosa): >32 µg/mL; Minimum inhibitory concentration (MIC), Ec FADDI-EC001 (Enterobacter cloacae): 0.25 µg/mL (≈ 0.221 µM); Minimum inhibitory concentration (MIC), Ec FADDI-EC003 (Enterobacter cloacae): 0.25 µg/mL (≈ 0.221 µM); Minimum inhibitory concentration (MIC), Ec FADDI-EC006 (Enterobacter cloacae): 0.25 µg/mL (≈ 0.221 µM)
2 | CCCCCCCC(=O)N[C@@H](CCN)C(=O)N[C@H](C(=O)N[C@@H](CCN)C(=O)N[C@H]1CCNC(=O)[C@H]([C@@H](C)O)NC(=O)[C@H](CCN)NC(=O)[C@H](CCN)NC(=O)[C@H]([C@@H](C)O)NC(=O)[C@@H](Cc2ccccc2)NC(=O)[C@H](CCN)NC1=O)[C@@H](C)O [Compound 22] (Octanoyl-[Dab]T[Dab][Dab][Dab][dF]T[Dab][Dab]T; lactam 4-C) | 0.5 (≈ 0.425 µM) | 1 (≈ 0.849 µM) | 1 (≈ 0.849 µM) | −3.10 | −1.50 | −3.11 | 1 (≈ 0.849 µM) | 1 (≈ 0.849 µM) | 0.5 (≈ 0.425 µM) | 1 (≈ 0.849 µM) | 1 (≈ 0.849 µM) | 16 (≈ 13.6 µM) | <0.125 | <0.125 | 0.25 (≈ 0.212 µM) | 
3 | CCCCCCCC(=O)N[C@@H](CCN)C(=O)N[C@H](C(=O)N[C@@H](CCN)C(=O)N[C@H]1CCNC(=O)[C@H]([C@@H](C)O)NC(=O)[C@H](CCN)NC(=O)[C@H](CCN)NC(=O)[C@H](C(C)C)NC(=O)[C@@H](CC(C)C)NC(=O)[C@H](CCN)NC1=O)[C@@H](C)O [Compound 23] (Octanoyl-[Dab]T[Dab][Dab][Dab][dL]V[Dab][Dab]T; lactam 4-C) | <0.125 | 0.5 (≈ 0.438 µM) | 1 (≈ 0.876 µM) | −2.48 | −2.82 | −3.88 | 0.5 (≈ 0.438 µM) | 0.5 (≈ 0.438 µM) | 0.25 (≈ 0.219 µM) | 1 (≈ 0.876 µM) | 1 (≈ 0.876 µM) | 4 (≈ 3.5 µM) | <0.125 | <0.125 | 0.25 (≈ 0.219 µM) | 
4 | CCCCCCCC(=O)N[C@@H](CCN)C(=O)N[C@H](C(=O)N[C@@H](CCN)C(=O)N[C@H]1CCNC(=O)[C@H]([C@@H](C)O)NC(=O)[C@H](CCN)NC(=O)[C@H](CCN)NC(=O)[C@H]([C@@H](C)O)NC(=O)[C@@H](CCCC)NC(=O)[C@H](CCN)NC1=O)[C@@H](C)O [Compound 24] (Octanoyl-[Dab]T[Dab][Dab][Dab][dNle]T[Dab][Dab]T; lactam 4-C) | <0.125 | 1 (≈ 0.875 µM) | 0.5 (≈ 0.437 µM) | −2.31 | −2.16 | −3.21 | 1 (≈ 0.875 µM) | 1 (≈ 0.875 µM) | 1 (≈ 0.875 µM) | 0.5 (≈ 0.437 µM) | 0.5 (≈ 0.437 µM) | 16 (≈ 14 µM) | <0.125 | <0.125 | 0.25 (≈ 0.219 µM) | 
5 | CCCCCCCC(=O)N[C@@H](CCN)C(=O)N[C@H](C(=O)N[C@H](CO)C(=O)N[C@H]1CCNC(=O)[C@H](C(C)O)NC(=O)[C@H](CCN)NC(=O)[C@H](CCN)NC(=O)[C@H](C(C)O)NC(=O)[C@@H](CC(C)C)CC(=O)[C@H](CCN)NC1=O)C(C)O (stereo partly drawn) [Compound 1] (Octanoyl-[Dab][Thr(3ξ)][dS][Dab][X2][Thr(3ξ)][Dab][Dab][Thr(3ξ)]; lactam 4-C) | 0.5 (≈ 0.443 µM) | <0.125 | 4 (≈ 3.54 µM) | 0.40 | −2.13 | −3.49 | 0.25 (≈ 0.221 µM) | 1 (≈ 0.885 µM) | 0.25 (≈ 0.221 µM) | 4 (≈ 3.54 µM) | 4 (≈ 3.54 µM) | >32 | <0.125 | <0.125 | 0.5 (≈ 0.443 µM) | 
6 | CC[C@@H]1NC(=O)[C@@H](CC(C)C)NC(=O)[C@H](CCN)NC(=O)[C@@H](NC(=O)[C@H](CN)NC(=O)[C@@H](NC(=O)[C@H](CCN)NC(=O)c2ccc(C(F)(F)F)cc2Cl)[C@@H](C)O)CCNC(=O)[C@H]([C@@H](C)O)NC(=O)[C@H](CCN)NC(=O)[C@H](CCN)NC1=O [Compound 109] (X8-[Dab]T[Dap][Dab][Dab][dL][Abu][Dab][Dab]T; lactam 4-C) | 0.25 (≈ 0.209 µM) | 0.25 (≈ 0.209 µM) | 0.5 (≈ 0.419 µM) | −2.68 | −1.54 | −3.47 | 1 (≈ 0.838 µM) | 0.25 (≈ 0.209 µM) | 1 (≈ 0.838 µM) | 0.5 (≈ 0.419 µM) | 0.5 (≈ 0.419 µM) | 2 (≈ 1.68 µM) | 1 (≈ 0.838 µM) | <0.125 | 0.25 (≈ 0.209 µM) | 
7 | CCCCCCCC(=O)N[C@@H](CCN)C(=O)N[C@H](C(=O)N[C@@H](CN)C(=O)N[C@H]1CCNC(=O)[C@H]([C@@H](C)O)NC(=O)[C@H](CCN)NC(=O)[C@H](CCN)NC(=O)[C@H]([C@@H](C)O)NC(=O)[C@@H](CC(C)C)NC(=O)[C@H](CCN)NC1=O)[C@@H](C)O [Compound 33] (Octanoyl-[Dab]T[Dap][Dab][Dab][dL]T[Dab][Dab]T; lactam 4-C) | <0.125 | 0.5 (≈ 0.443 µM) | 0.5 (≈ 0.443 µM) | −1.55 | −1.40 | −2.80 | 0.25 (≈ 0.221 µM) | 0.5 (≈ 0.443 µM) | 0.25 (≈ 0.221 µM) | 0.5 (≈ 0.443 µM) | 0.5 (≈ 0.443 µM) | 8 (≈ 7.08 µM) | <0.125 | <0.125 | 1 (≈ 0.885 µM) | 
8 | CC[C@H](C)CCCCC(=O)N[C@@H](CCN)C(=O)N[C@H](C(=O)N[C@H](CO)C(=O)N[C@H]1CCNC(=O)[C@H]([C@@H](C)O)NC(=O)[C@H](CCN)NC(=O)[C@H](CCN)NC(=O)[C@H]([C@@H](C)O)NC(=O)[C@@H](CC(C)C)NC(=O)[C@H](CCN)NC1=O)[C@@H](C)O [Compound 150, polymyxin D1] (X1-[Dab]T[dS][Dab][Dab][dL]T[Dab][Dab]T; lactam 4-C) | 0.5 (≈ 0.437 µM) | 0.25 (≈ 0.218 µM) | 4 (≈ 3.5 µM) | −0.29 | −1.46 | −3.77 |  |  |  |  |  |  |  |  |  | Minimum inhibitory concentration (MIC), Ab ATCC 17978 (Acinetobacter baumannii): 0.25 µg/mL (≈ 0.218 µM); Minimum inhibitory concentration (MIC), Ab ATCC 19606 (Acinetobacter baumannii): 0.25 µg/mL (≈ 0.218 µM); Minimum inhibitory concentration (MIC), Ab FADDI-AB034 (Acinetobacter baumannii): 0.25 µg/mL (≈ 0.218 µM); Minimum inhibitory concentration (MIC), Pa ATCC 27853 (Pseudomonas aeruginosa): 4 µg/mL (≈ 3.5 µM); Minimum inhibitory concentration (MIC), Pa FADDI-PA022 (Pseudomonas aeruginosa): 4 µg/mL (≈ 3.5 µM); Minimum inhibitory concentration (MIC), Pa FADDI-PA025 (Pseudomonas aeruginosa): >32 µg/mL; Minimum inhibitory concentration (MIC), Ec FADDI-EC001 (Enterobacter cloacae): 0.5 µg/mL (≈ 0.437 µM); Minimum inhibitory concentration (MIC), Ec FADDI-EC003 (Enterobacter cloacae): 0.5 µg/mL (≈ 0.437 µM); Minimum inhibitory concentration (MIC), Ec FADDI-EC006 (Enterobacter cloacae): 0.5 µg/mL (≈ 0.437 µM)
